According to patent US20070015815A1, “Hydrazide substrate shuts down protein biosynthesis capability in cells that host a metastatic or malignant disease mechanism” (priority 2003, published 2007):
Like-named read-outs stand apart in the source and are kept apart here.

What was measured:
[1] = cited from earlier work
smallpox = details: Thompson, about 1953; cited from earlier work
polio = details: Thompson, about 1953; cited from earlier work
[2] = 1500 mg to 3000 mg daily; cited from earlier work
HIV = format: in vivo, human
malignant melanoma = malignant melanoma of the applicant; format: in vivo, human; details: about 100 mg daily for about three or four weeks
Description: The MAOI hydrazide anticancer concept was reduced to practice by the applicant when an impromptu opportunity appeared after a decade old mole began to metastasize. The growth was about a half inch in diameter located in the center of the applicant's forehead, and had remained stable, symmetrical, and unchanged for years when it began to increase in size, shape, and having mixed pigmentation indicative of malignant melanoma. At such time the applicant began a treatment regimen based on Iproniazid Phosphate at about 100 mg daily for about three or four weeks when the perimeter of the growth began to separate from the skin surface underneath and itch. The applicant would unconsciously pick at the protruding edge as if picking at a scab which served to more quickly separate the neoplastic part at its perimeter where sections were peeled away.

viral conjunctivitis = viral conjunctivitis of the applicant; format: in vivo, human; details: single dose of about 100 mg
basal cell carcinoma = basal cell carcinoma of the applicant; format: in vivo, human; details: during the melanoma treatment
Description: A second more benign cancer growth coexisted at the same time while the melanoma treatment was ongoing which was of the basal cell carcinoma type which was not very noticeable, bothersome, or believed to be life threatening, but which also disappeared following the hydrazide melanoma treatment. The basal cell carcinoma was located below the left eye on the applicant's cheek which was characterized by a hard, gritty, cellular formation where scratching or rubbing the surface would dislodge some of the small hard cells which is a common characteristic of basal cell carcinoma. Although the condition was not apparent or at a life threatening stage at the time, and had never raised concerns or the idea of providing opportunity for Iproniazid screening as the melanoma cancer did, it was nevertheless inadvertently shutdown by Iproniazid and had likewise disappeared. Such successful use of Iproniazid as a cancer treatment method constitutes a new cancer treatment use for the MAOI hydrazide product.

[3] = Public Health Service Pub. No.1589 (1967); cited from earlier work
Kaposi's Sarcoma = Kaposi's Sarcoma of the applicant; parameters: species or system human; details: in vivo
[4] = test system: bacterial gastroenteritis; assay: bacterial gastroenteritis of the applicant; format: in vivo, human; details: 100 mg dose with warm tap water
[5] = in vivo; cited from earlier work
fetal cells = format: in vivo; details: offspring
tuberculosis organism = details: Fox, 1952; cited from earlier work
influenza = influenza of the applicant; format: in vivo, human; details: small dose
Description: Such irreversible substrate concept has been postulated as an oxidase enzyme inhibitor which the applicant agrees is correct in context that such is a protease inhibitor and not an oxidase inhibitor. Such concept provides a hypothesis that logically explains all hydrazide biological prior art phenomena and can predict the prodrug type irreversible substrate action of any simple or low molecular weight hydrazide molecule. The irreversible substrate type protease inhibitor idea is also in agreement with the antidepressant drug explanation and working model, and the Malazide explanation and working model, and was predicted and illustrated by the mouse fetus experiment, and additionally concurs with the Marboran antiviral working model and explanation. […] And following a long period of time where no research was conducted due to family tragedies and related obstruction, the applicant returned to such work where the MAOI type hydrazide, Iproniazid, was then successfully used to target and shutdown protein biosynthesis in cells that hosted malignant disease mechanisms comprising various types of cancers and viral infections. […]

**Q.** Which “fraction converted by metabolism to the hydrazide (acetyl) metabolite” value ([1]; Fox) does the source give for `NN` [hydrazine] here?
**A.** about 50%

**Q.** With `CN1C(=O)C(=NNC(N)=S)c2ccccc21` [Marboran, 1-Methylindole-2,3,-dione 3 thiosemicarbazone] as the compound, how does the “antiviral action against smallpox” value (smallpox) read?
**A.** effective

**Q.** And the “antiviral action against polio” value (polio)?
**A.** effective

**Q.** And the “side effects accompanying use” value [2]?
**A.** nausea and vomiting

**Q.** For Iproniazid phosphate, which “course after the single dose” value (HIV; after several weeks) is on record?
**A.** the virus begin to return

**Q.** And the “effect of initial single dose on HIV viral activity” value (HIV; single dose of about 100 mg, applicant)?
**A.** shutdown the viral activity seemingly in total

**Q.** And the “effect on malignant melanoma growth” value (malignant melanoma)?
**A.** removed in total

**Q.** And the “effect on viral conjunctivitis” value (viral conjunctivitis)?
**A.** disappearance of the inflamation of the conjunctiva

**Q.** For `CC(C)NNC(=O)c1ccncc1` [Iproniazid, Isonicotinic acid 2-isopropylhydrazide], which “effect on basal cell carcinoma” value (basal cell carcinoma) is on record?
**A.** disappeared

**Q.** And the “outcome after completed treatment study” value (HIV; after planned research was completed)?
**A.** the virus was eradicated in total

**Q.** What about the “lethal dose for mice” value [3] of the same compound?
**A.** 1760 mg/kg

**Q.** And the “effect on Kaposi's Sarcoma” value (Kaposi's Sarcoma)?
**A.** inhibit and shutdown

**Q.** And the “time until all pain and griping had disappeared” value [4]?
**A.** ≤ 10 min

**Q.** And the “time until most pain was gone” value [4]?
**A.** ≤ 5 min

**Q.** And the cytotoxic effects [5]?
**A.** no cytotoxic effects

**Q.** And the “outcome of fetal cell division and growth shutdown in pregnant mice” value (fetal cells)?
**A.** birth of all healthy mice that matured normally to provide midget size adults

**Q.** And the tuberculostatic activity (tuberculosis organism)?
**A.** did not appear to kill the tuberculosis organism

**Q.** What about the effect on influenza (influenza) of the same compound?
**A.** very rapid recovery

**Q.** For `NNC(=O)c1ccncc1` [Isoniazid, Isonicotinic acid hydrazide], which tuberculostatic activity (tuberculosis organism) is on record?
**A.** exceeded all other substances screened

**Q.** And the “fraction converted by metabolism to the hydrazide (acetyl) metabolite” value ([1]; in vivo)?
**A.** 50%
